From US11419913B2, “Pharmaceutical compositions for inhibiting inflammatory cytokines” (S.I.S. SHULOV INNOVATIVE SCIENCE LTD., priority 2018, dated 2022)
Where a SMILES comes first, the peptide text is derived from it. [ ]: non-standard residue; d: D form. The star is where a group is joined. pGlu = O=C1CC[C@@H](C(=O)O)N1; Octanoyl = CCCCCCCC(=O)*

Assays:
TNF alpha = experiment: ZEP3 pretreatment, expression of TNF alpha by LPS treated macrophages; format: cell-based, mouse; details: ZEP3 50 μg/mL 1 hour before LPS 100 ng/mL
Experimental: Macrophages originating from C57BL/6 mice were cultured at a density of 200,000 cells/mL in a 24-well plate (500 μl wells) and placed in a 37° C., 5% CO2 Incubator overnight. Following the overnight incubation media were replaced with fresh media containing 50 μg/ml ZEP3. Following 1-hour incubation 100 ng/mL LPS was added to the appropriate wells, the plates were incubated for additional 24 hours, then the amount of TNF alpha in each well was measured.

RANTES = RANTES production in LPS-stimulated human PBMCs; format: cell-based; details: ZEP3 40, 100 and 150 μg/ml, 1 hr pre-treatment, LPS 24 hours; 4 donors (FIG. 12)
Experimental: The effect of the peptide ZEP3 (SEQ ID NO: 1) on cytokine production was evaluated in an in vitro human model of inflammation. Human Peripheral Blood Mononuclear Cells (PBMCs) were stimulated using Lipopolysaccharide (LPS) to produce cytokines.
Method: Briefly, cryopreserved human PBMCs of four healthy non-smokers, not on any corticosteroids or other inflammatory drugs, were grown in RPMI 1640 with 10% heat inactivated fetal bovine serum (FBS), 100 U/ml penicillin and 100 μg/mL streptomycin (complete growth medium, CGM).
Human PBMCs were thawed and plated for all groups (1-6, Table 7), and rested for 1 hour before treatment. […] 24 hours post LPS addition, Almar Blue fluorescent at 585 nm (correlating with cell viability), is measured and supernatant is collected for cytokine determination. […]
Detailed method: cells were thawed according to manufacturer's instructions, washed in CGM and assessed for viability using trypan blue staining. […] At 24 hours post LPS stimulation, plates were read for assessment of cell viability and cell culture supernatants were harvested and stored at −80° C. for cytokine analysis. […] Cytokine production and percentage of sample stimulation vs. the average of the stimulation control were calculated.

## CCCCCCCC(=O)NCCCC[C@H](NC(=O)[C@H](Cc1c[nH]c2ccccc12)NC(=O)[C@H](CC(N)=O)NC(=O)[C@@H]1CCC(=O)N1)C(=O)O [ZEP3, pGlu-Asn-Trp-Lys(Octanoyl)-OH] ([pGlu]NWK(Octanoyl)-OH)
TNF alpha; 24 hours
  TNF alpha: 101.2 pg/mL
TNF alpha; vs LPS control
  % reduction of TNF alpha: 46.7%
RANTES
  RANTES production: significant reduction
